US10500166B2, “Methods for the treatment of erectile dysfunction using fispemifene” (QUATRX PHARMACEUTICALS, priority 2007, dated 2019)

Tests used:
LH (luteinizing hormone) = assay: Example 3 study in hypogonadal men: serum LH (ITT); assay type: in vivo, human; conditions: for LH, Median / LH, Min / LH, Max / LH, Mean ± SD: Baseline (Visit 2)
Protocol: A randomized, double-blind, placebo controlled, parallel-group study of once-daily doses of fispemifene (100, 200, and 300 mg/day) given for 4 weeks was conducted in a population of hypogonadal men. Subjects were required to meet all of the following inclusion criteria at screening and prior to randomization to be eligible for the study:
There were 77 subjects total. The number of subjects randomized to the 100 mg fispemifene, 200 mg fispemifene, 300 mg fispemifene, and placebo arms were 21, 21, 19, and 16, respectively.
Subjects were randomly assigned to one of four treatment groups in a 1:1:1:1 ratio: • Treatment A (100 mg): fispemifene 100 mg+placebo+placebo; • Treatment B (200 mg): fispemifene 100 mg+fispemifene 100 mg+placebo; • Treatment C (300 mg): fispemifene 100 mg+fispemifene 100 mg+fispemifene 100 mg; and • Treatment D (Placebo): placebo+placebo+placebo.
Subjects took one dose (three capsules) of study medication once a day at home for 4 weeks. Capsules were to be taken in the morning immediately after breakfast, with the exception of the morning of the Week 4 visit. Capsules were not to be taken on the morning of the Week 4 visit because trough plasma levels of fispemifene were determined by a blood sample taken at this visit. Each subject was randomly assigned to treatment with one of the 3 different dose regimens of fispemifene or placebo vehicle. Each subject received a 4 week supply of study drug.
Blood samples were taken from the subjects within 1 week prior to dosing with study drug to establish baseline values; after 2 and 4 weeks of randomization; and 2 weeks after the last dose of study drug. Serum was prepared from those samples and used to determine the mean % change from baseline in total testosterone, free testosterone, SHBG (sex hormone-binding globulin), DHT (dihydrotestosterone), E2 (estradiol), LH (luteinizing hormone), FSH (follicle stimulating hormone), and inhibin B.
3. Percent change from baseline in SHBG, DHT, E2, LH, FSH, inhibin B, and testosterone/E2 ratio at Weeks 2, 4, and 6.

FSH = assay: Phase I repeated dose study 101-50202: serum FSH; assay type: in vivo, human
Description: Fispemifene has been studied in two phase I studies in humans—in a single dose and a repeated dose study. Effect of fispemifene on hormone levels was one main focus of the repeated dose study. The phase I repeated dose study (number 101-50202) was a randomized, double-blind, placebo-controlled 28-day dose-escalation study performed in 31 healthy, elderly men, aged 50-68 years. The main objective of the study was to investigate the tolerability, safety and pharmacokinetics of fispemifene after repeated oral doses, but the study focused also on the effects of fispemifene on serum free and total testosterone, estradiol, and other relevant hormones. The fispemifene doses 10, 30, 100 and 300 mg per day and placebo were administered once every morning as capsules containing 10 mg or 100 mg of fispemifene, or placebo.
The variables for safety and tolerability were adverse events, vital signs, 12-lead ECG, clinical laboratory evaluations, physical examination, ultrasound examinations (mammary glands) and inhibin B. For pharmacokinetics, the concentrations of fispemifene and its metabolite(s) were to be evaluated. For pharmacodynamics, serum concentrations of FSH, LH, estradiol, testosterone, SHBG, prolactin, aldosterone, cortisol and TSH before and during treatment were measured and compared with the concentrations in the placebo-group.

[1] = 100 mg/day, to Week 6 (2 weeks after discontinuation)
[2] = 200 mg/day, to Week 6 (2 weeks after discontinuation)
[3] = 300 mg/day, to Week 6 (2 weeks after discontinuation)

## OCCOCCOc1ccc(/C(=C(/CCCl)c2ccccc2)c2ccccc2)cc1 [Fispemifene, (Z)-2-{2-[4-(4-Chloro-1,2-diphenylbut-1-enyl)phenoxy]ethoxy}ethanol]
LH (luteinizing hormone); 100 mg/day
  LH, Median: 4.10 IU/L
  LH, Min: 1.50 IU/L
LH (luteinizing hormone); 100 mg/day, to Week 2
  LH, % Change from Baseline, Max: 141%
  LH, % Change from Baseline, Mean ± SD: 0.39 ± 0.00496%
  LH, % Change from Baseline, Median: 29%
LH (luteinizing hormone); 100 mg/day, to Week 4
  LH, % Change from Baseline, Max: 203%
  LH, % Change from Baseline, Median: 49%
LH (luteinizing hormone); [1]
  LH, % Change from Baseline, Max: 100%
  LH, % Change from Baseline, Median: 0%
LH (luteinizing hormone); 200 mg/day
  LH, Max: 11.60 IU/L
  LH, Mean ± SD: 4.25 ± 2.028 IU/L
  LH, Median: 3.60 IU/L
  LH, Min: 1.00 IU/L
LH (luteinizing hormone); 200 mg/day, to Week 2
  LH, % Change from Baseline, Max: 123%
  LH, % Change from Baseline, Median: 54%
LH (luteinizing hormone); 200 mg/day, to Week 4
  LH, % Change from Baseline, Max: 137%
  LH, % Change from Baseline, Median: 52%
LH (luteinizing hormone); [2]
  LH, % Change from Baseline, Max: 80%
  LH, % Change from Baseline, Median: 19%
LH (luteinizing hormone); 300 mg/day
  LH, Max: 8.00 IU/L
  LH, Mean ± SD: 3.62 ± 1.506 IU/L
  LH, Median: 3.20 IU/L
  LH, Min: 1.90 IU/L
LH (luteinizing hormone); 300 mg/day, to Week 2
  LH, % Change from Baseline, Max: 134%
  LH, % Change from Baseline, Median: 63%
LH (luteinizing hormone); 300 mg/day, to Week 4
  LH, % Change from Baseline, Max: 178%
  LH, % Change from Baseline, Median: 42%
LH (luteinizing hormone); [3]
  LH, % Change from Baseline, Max: 84%
  LH, % Change from Baseline, Median: 19%
LH (luteinizing hormone); hypogonadal men, 100-300 mg/day for 4 weeks
  effect on serum LH levels: increased
FSH; 10 mg/day, Baseline
  Serum FSH, Mean: 5.42 U/L
FSH; 10 mg/day, Day 8
  Serum FSH, Mean: 5.87 U/L
FSH; 10 mg/day, Day 15
  Serum FSH, Mean: 5.20 U/L
FSH; 10 mg/day, Day 22
  Serum FSH, Mean: 6.60 U/L
FSH; 10 mg/day, Day 28
  Serum FSH, Mean: 5.66 U/L
FSH; 30 mg/day, Baseline
  Serum FSH, Mean: 9.14 U/L
FSH; 30 mg/day, Day 8
  Serum FSH, Mean: 9.78 U/L
FSH; 30 mg/day, Day 15
  Serum FSH, Mean: 10.14 U/L
FSH; 30 mg/day, Day 22
  Serum FSH, Mean: 10.18 U/L
FSH; 30 mg/day, Day 28
  Serum FSH, Mean: 8.42 U/L
FSH; 100 mg/day, Baseline
  Serum FSH, Mean: 6.30 U/L
FSH; 100 mg/day, Day 8
  Serum FSH, Mean: 7.68 U/L
FSH; 100 mg/day, Day 15
  Serum FSH, Mean: 8.10 U/L
FSH; 100 mg/day, Day 22
  Serum FSH, Mean: 8.20 U/L
FSH; 100 mg/day, Day 28
  Serum FSH, Mean: 7.73 U/L
FSH; 300 mg/day, Baseline
  Serum FSH, Mean: 6.80 U/L
FSH; 300 mg/day, Day 8
  Serum FSH, Mean: 8.80 U/L
FSH; 300 mg/day, Day 15
  Serum FSH, Mean: 8.73 U/L
FSH; 300 mg/day, Day 22
  Serum FSH, Mean: 8.85 U/L
FSH; 300 mg/day, Day 28
  Serum FSH, Mean: 7.57 U/L
FSH; during the 28 days of treatment
  effect on serum concentration of FSH: increased
